ChEMBL document CHEMBL6103654, “Design, Biological Characterization, and Discovery of Capromorelin Derivatives as Oral Growth Hormone Secretagogue Receptor Type 1a Agonist for the Treatment of Growth Hormone Deficiency” (J Med Chem, 2025)
The source made the active and inactive calls. No cut-off for these calls is given here.

Tests used:
[1] = Agonist activity at human GHSR expressed in CHO cells incubated for 60 min by FLIPR assay; format: cell-based; settings: 1 h
CHO [2] = assay: Agonist activity at human GHSR expressed in CHO cells at maximum concentration incubated for 60 min by FLIPR assay relative to control; format: cell-based; settings: filed as agonist
CHO [3] = assay: Agonist activity at monkey GHSR expressed in CHO cells at maximum concentration incubated for 60 min by FLIPR assay relative to control; format: cell-based; settings: Macaca mulatta, filed as agonist
[4] = biological target: Growth hormone secretagogue receptor type 1 (Rattus norvegicus) (UniProt O08725); assay: Agonist activity at rat GHSR expressed in CHO cells at maximum concentration incubated for 60 min by FLIPR assay relative to control; format: functional, cell-based; settings: filed as agonist
[5] = AUC in male Sprague-Dawley rat at 2 mg/kg, po administered as single dose measured after 4 hrs; format: ADME, organism-based; settings: in vivo
[6] = Oral bioavailability in male Sprague-Dawley rat at 2 mg/kg administered as single dose measured after 4 hrs; format: ADME, organism-based; settings: in vivo
Rattus norvegicus [7] = assay: Induction of growth hormone level in Juvenile Sprague-Dawley rat blood at 0.2 mg/kg, po administered as single dose measured after 4 hrs by ELISA method (reference value: 32.5+/-4.5 ng/mL); format: functional
Rattus norvegicus [8] = assay: Induction of growth hormone level in Juvenile Sprague-Dawley rat blood at 0.5 mg/kg, po administered as single dose measured after 20 mins by ELISA method (reference value: 29.1+/-8.6 ng/mL); format: functional
Rattus norvegicus [9] = assay: Induction of growth hormone level in Juvenile Sprague-Dawley rat blood at 0.5 mg/kg, po administered as single dose measured after 2 hrs by ELISA method (reference value: 26.5+/-7.3 ng/mL); format: functional
Rattus norvegicus [10] = assay: Induction of growth hormone level in adult Sprague-Dawley rat blood by measuring AUC(0 to 40 mins) at 0.1 mg/kg, po administered as single dose by ELISA method (reference value: 7.0+/-1.7 ng/mL); format: functional, organism-based
Rattus norvegicus [11] = assay: Induction of growth hormone level in adult Sprague-Dawley rat blood by measuring AUC(0 to 40 mins) at 0.5 mg/kg, po administered as single dose by ELISA method (reference value: 7.0+/-1.7 ng/mL); format: functional, organism-based
Rattus norvegicus [12] = assay: Induction of growth hormone level in adult Sprague-Dawley rat blood at 0.2 mg/kg, po administered as single dose measured after 40 mins by ELISA method (reference value: 14.4+/-6.9 ng/mL); format: functional
Rattus norvegicus [13] = assay: Induction of growth hormone level in adult Sprague-Dawley rat blood at 0.5 mg/kg, po administered as single dose measured after 20 mins by ELISA method (reference value: 4.9+/-1.1 ng/mL); format: functional
Rattus norvegicus [14] = assay: Induction of growth hormone level in 4 week-old male Sprague-Dawley rat assessed as increase in body weight at 2.5 mg/kg, po measured after 10 days; format: functional, organism-based; settings: time 10.0 day
[15] = AUC in male monkey at 2 mg/kg, po administered as single dose measured after 4 hrs; format: ADME, organism-based, Macaca mulatta; settings: rhesus monkey, in vivo
[16] = Half life in male mouse at 2 mg/kg, po administered as single dose measured after 4 hrs; format: ADME, organism-based; settings: in vivo
[17] = Metabolic stability in human liver microsome assessed as half life at 1 uM measured upto 60 mins in presence of NADPH by LC-MS/MS analysis; format: ADME; settings: liver microsomes
[18] = Metabolic stability in human liver microsome assessed as hepatic clearance at 1 uM measured upto 60 mins in presence of NADPH by LC-MS/MS analysis; format: ADME; settings: liver microsomes, read-out: CLH
[19] = Metabolic stability in monkey liver microsome assessed as intrinsic clearance at 1 uM measured upto 60 mins in presence of NADPH by LC-MS/MS analysis; format: ADME, Macaca mulatta; settings: rhesus monkey, liver microsomes, read-out: CLH
[20] = Metabolic stability in dog liver microsome assessed as intrinsic clearance at 1 uM measured upto 60 mins in presence of NADPH by LC-MS/MS analysis; format: ADME, Canis lupus familiaris; settings: liver microsomes, read-out: CLH
[21] = Metabolic stability in rat liver microsome assessed as half life at 1 uM measured upto 60 mins in presence of NADPH by LC-MS/MS analysis; format: ADME; settings: liver microsomes
[22] = Metabolic stability in mouse liver microsome assessed as hepatic clearance at 1 uM measured upto 60 mins in presence of NADPH by LC-MS/MS analysis; format: ADME; settings: liver microsomes, read-out: CLH
Cytochrome P450 2C19 = Cytochrome P450 2C19 (Homo sapiens, UniProt P33261); assay: Inhibition of CYP2C19 in human liver microsome incubated for 5 min in presence of NADPH by UPLC-MS/MS analysis; format: ADME, microsomes
[23] = Genotoxicity in Salmonella typhimurium TA1537 by Ames test; format: toxicity; settings: salmonella enterica subsp. enterica serovar typhimurium
[24] = Toxicity in Sprague-Dawley rat assessed as change in hepatic structure by measuring hepatic lobules at 10 to 100 mg/kg, po administered once daily for 14 days; format: organism-based; settings: in vivo, 336 h, dose 10-100 mg/kg, time 14 day

Growth hormone secretagogue receptor type 1 (Rattus norvegicus), sequence (O08725 whole entry): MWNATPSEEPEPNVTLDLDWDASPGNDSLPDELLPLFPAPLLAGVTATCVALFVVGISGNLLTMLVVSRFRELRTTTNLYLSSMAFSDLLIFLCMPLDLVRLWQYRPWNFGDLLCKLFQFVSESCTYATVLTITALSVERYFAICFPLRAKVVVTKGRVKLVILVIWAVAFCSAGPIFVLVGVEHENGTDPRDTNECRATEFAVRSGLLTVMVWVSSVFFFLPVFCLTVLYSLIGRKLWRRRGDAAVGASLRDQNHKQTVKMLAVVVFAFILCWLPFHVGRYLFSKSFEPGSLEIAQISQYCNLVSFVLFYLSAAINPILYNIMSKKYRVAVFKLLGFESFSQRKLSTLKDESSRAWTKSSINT
Cytochrome P450 2C19, sequence (P33261 whole entry): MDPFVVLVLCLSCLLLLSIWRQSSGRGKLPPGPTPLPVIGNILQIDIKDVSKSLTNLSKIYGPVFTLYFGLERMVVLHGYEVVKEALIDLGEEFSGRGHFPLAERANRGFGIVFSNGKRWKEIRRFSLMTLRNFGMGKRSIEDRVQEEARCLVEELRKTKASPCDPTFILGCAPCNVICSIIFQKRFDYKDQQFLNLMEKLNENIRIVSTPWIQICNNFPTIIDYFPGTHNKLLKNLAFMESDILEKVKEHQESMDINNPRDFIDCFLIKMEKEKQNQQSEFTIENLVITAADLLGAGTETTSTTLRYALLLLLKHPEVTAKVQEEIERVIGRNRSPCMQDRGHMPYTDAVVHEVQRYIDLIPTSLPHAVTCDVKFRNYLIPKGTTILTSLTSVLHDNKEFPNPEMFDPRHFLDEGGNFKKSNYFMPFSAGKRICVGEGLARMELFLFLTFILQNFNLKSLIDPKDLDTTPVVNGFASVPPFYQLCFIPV

- EC50 [1]: 0.55 nM
- Activity [4]: 96.7%
- AUC at 4 h [5]: 188 ng·h/mL
- bioavailability [6]: 16.7%
- AUC [15]: 75.13 ng·h/mL
- half-life [16]: 91.2 min
- half-life at 1 µM [17]: 11.3 min
- CLint scaled at 1 µM [18]: 127 mL/min/kg
- microsomal CLint at 1 µM [19]: 451 µL/min/mg
- microsomal CLint at 1 µM [20]: 134 µL/min/mg
- half-life at 1 µM [21]: 9.9 min
- CLint scaled at 1 µM [22]: 1370 mL/min/kg
- IC50 (Cytochrome P450 2C19): > 30000 nM
Structure (SMILES): CC(C)(N)C(=O)N[C@H](COCc1ccccc1)C(=O)N1CCC2=NN(C3CC3)C(=O)[C@]2(Cc2ccccc2)C1
- Activity (CHO [2]): 152%
- Activity (CHO [3]): 106%
- Activity (Rattus norvegicus [7]): 43.5 ng/mL
- Activity (Rattus norvegicus [8]): 223.2 ng/mL
- Activity (Rattus norvegicus [9]): 34.4 ng/mL
- AUC (Rattus norvegicus [10]): 61 ng·h/mL
- AUC (Rattus norvegicus [11]): 62.8 ng·h/mL
- Activity (Rattus norvegicus [12]): 26 ng/mL
- Activity (Rattus norvegicus [13]): 68.8 ng/mL
- Activity (Rattus norvegicus [14]): Active
- Activity [23]: Non-toxic
- Activity [24]: Non-toxic
